These results are taken from ChEMBL document CHEMBL1137514, “Synthesis and biological evaluation of non-peptide alpha(v)beta(3)/alpha(5)beta(1) integrin dual antagonists containing 5,6-dihydropyridin-2-one scaffolds” (Bioorg Med Chem, 2007).

By IC50 is commonly meant the concentration that gives 50% inhibition. Higher therefore signals a need for much substance.

Residues, ends and D or L forms follow the SMILES beside them.

One test deals with Integrin alpha-V/beta-3 (Homo sapiens, UniProt P05106+P06756). The test can be described thus: Inhibition of integrin alpha-V-beta-3-mediated SK-MEL-24 cell adhesion to fibronectin.
For another test, the target named is Integrin alpha-5/beta-1 (Homo sapiens, UniProt P05556+P08648). Nature of the test: Inhibition of integrin alpha-5-beta-1-mediated K562 cell adhesion to fibronectin. The class given is cell-based.
Chain of Integrin alpha-5/beta-1 (P05556 21-798 limits assumed): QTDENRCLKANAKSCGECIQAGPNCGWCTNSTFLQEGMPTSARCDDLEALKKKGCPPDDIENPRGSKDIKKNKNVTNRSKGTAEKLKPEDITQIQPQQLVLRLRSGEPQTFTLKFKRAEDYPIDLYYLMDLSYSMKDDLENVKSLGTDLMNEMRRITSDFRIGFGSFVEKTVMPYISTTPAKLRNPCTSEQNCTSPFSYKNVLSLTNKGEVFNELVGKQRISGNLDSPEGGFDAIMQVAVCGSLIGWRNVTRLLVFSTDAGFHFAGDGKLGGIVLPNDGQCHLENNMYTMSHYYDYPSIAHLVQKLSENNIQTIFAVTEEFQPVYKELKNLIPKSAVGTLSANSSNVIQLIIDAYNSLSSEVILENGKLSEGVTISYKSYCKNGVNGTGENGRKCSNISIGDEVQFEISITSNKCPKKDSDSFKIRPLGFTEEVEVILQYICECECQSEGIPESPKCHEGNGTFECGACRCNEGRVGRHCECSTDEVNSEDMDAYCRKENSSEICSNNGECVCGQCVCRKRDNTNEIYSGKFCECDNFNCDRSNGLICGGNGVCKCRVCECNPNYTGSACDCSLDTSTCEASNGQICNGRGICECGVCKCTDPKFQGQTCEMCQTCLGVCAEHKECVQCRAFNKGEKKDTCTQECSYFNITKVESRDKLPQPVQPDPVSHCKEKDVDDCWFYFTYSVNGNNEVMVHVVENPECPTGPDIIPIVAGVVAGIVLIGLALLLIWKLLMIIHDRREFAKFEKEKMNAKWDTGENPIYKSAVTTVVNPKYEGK
Chain of Integrin alpha-5/beta-1 (P08648 42-894 limits assumed): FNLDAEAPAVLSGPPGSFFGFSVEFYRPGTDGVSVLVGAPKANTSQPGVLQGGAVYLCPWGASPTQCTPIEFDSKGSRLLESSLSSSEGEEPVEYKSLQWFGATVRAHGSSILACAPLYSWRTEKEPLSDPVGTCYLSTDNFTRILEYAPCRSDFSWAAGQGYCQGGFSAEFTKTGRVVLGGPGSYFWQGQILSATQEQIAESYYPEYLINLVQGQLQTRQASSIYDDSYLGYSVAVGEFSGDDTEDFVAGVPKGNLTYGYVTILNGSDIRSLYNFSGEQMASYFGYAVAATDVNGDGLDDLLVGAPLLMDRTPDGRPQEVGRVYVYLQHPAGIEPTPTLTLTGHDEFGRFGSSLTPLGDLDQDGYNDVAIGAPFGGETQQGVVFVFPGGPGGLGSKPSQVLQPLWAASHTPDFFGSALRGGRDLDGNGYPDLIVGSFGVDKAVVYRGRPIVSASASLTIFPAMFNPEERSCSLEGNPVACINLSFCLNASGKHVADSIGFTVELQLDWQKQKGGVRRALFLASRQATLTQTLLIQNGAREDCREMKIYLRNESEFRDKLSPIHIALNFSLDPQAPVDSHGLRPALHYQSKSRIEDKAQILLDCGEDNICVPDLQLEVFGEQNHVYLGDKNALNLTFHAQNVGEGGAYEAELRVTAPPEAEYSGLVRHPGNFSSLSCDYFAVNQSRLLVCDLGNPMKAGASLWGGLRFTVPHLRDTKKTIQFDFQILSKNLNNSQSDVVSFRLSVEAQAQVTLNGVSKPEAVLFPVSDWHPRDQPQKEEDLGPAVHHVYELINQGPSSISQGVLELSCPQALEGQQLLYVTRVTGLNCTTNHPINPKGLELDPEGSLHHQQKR
Chain of Integrin alpha-5/beta-1 (P08648 895-1049 limits assumed): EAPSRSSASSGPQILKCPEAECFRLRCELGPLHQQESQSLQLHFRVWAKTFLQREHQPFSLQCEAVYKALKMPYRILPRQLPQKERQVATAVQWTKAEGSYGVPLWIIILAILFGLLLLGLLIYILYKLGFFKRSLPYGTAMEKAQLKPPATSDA

Chain of Integrin alpha-V/beta-3 (P05106 27-788 limits assumed): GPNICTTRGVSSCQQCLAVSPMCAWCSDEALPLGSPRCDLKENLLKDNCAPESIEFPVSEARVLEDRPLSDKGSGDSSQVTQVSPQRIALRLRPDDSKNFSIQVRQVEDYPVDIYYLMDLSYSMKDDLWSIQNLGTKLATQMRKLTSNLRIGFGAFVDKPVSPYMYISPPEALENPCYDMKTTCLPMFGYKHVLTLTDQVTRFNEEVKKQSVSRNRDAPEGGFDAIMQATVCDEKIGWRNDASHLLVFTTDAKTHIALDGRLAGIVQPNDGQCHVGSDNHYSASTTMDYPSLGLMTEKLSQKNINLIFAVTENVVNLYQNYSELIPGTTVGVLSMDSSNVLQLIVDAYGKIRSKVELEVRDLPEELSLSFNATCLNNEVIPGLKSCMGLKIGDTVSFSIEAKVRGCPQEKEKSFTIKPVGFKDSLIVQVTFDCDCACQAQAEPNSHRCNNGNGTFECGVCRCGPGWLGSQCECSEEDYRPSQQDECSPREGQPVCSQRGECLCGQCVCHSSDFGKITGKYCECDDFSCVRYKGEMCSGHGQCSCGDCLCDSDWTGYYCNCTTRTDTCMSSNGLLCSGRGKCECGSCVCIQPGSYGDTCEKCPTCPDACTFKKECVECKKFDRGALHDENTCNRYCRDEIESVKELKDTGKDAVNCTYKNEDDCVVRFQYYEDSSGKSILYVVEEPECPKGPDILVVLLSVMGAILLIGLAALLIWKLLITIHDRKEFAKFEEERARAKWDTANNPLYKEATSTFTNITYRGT
Chain of Integrin alpha-V/beta-3 (P06756 31-889 limits assumed): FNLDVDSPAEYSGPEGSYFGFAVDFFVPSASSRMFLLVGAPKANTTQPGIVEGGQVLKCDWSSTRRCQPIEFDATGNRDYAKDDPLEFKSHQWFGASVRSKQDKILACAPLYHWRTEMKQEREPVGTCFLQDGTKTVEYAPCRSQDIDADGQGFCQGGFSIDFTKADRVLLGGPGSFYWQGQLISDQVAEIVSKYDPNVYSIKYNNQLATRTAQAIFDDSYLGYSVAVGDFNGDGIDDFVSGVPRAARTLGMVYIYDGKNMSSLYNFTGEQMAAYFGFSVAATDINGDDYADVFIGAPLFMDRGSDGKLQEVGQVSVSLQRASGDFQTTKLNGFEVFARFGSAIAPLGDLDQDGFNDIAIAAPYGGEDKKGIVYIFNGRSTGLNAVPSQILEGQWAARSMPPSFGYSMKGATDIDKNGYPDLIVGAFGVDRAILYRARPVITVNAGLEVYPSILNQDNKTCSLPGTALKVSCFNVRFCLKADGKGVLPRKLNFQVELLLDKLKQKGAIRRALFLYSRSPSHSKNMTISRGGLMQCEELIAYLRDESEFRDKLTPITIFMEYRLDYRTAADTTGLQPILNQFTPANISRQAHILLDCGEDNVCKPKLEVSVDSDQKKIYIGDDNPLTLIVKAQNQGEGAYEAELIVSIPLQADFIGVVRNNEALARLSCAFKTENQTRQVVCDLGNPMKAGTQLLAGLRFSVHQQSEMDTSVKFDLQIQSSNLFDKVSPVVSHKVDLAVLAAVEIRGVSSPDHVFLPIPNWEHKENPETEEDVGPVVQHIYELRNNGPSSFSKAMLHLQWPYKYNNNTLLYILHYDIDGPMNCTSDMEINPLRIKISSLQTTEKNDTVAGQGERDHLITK
Chain of Integrin alpha-V/beta-3 (P06756 891-1048 limits assumed): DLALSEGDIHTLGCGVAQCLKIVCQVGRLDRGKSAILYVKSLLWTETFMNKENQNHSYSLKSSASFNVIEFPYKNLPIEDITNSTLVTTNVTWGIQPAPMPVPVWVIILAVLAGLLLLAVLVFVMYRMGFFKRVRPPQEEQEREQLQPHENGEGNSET

For the compound `CCCN(C(=O)CC(=O)O)C1=C(C)C[C@H](c2ccccc2)N([C@@H](C)c2ccc(N)cc2)C1=O`, the half-inhibitory concentration (IC50) at Integrin alpha-V/beta-3 is 15.1 µM; on Integrin alpha-5/beta-1 it was 35.1 µM.

As for `CCCN(C(=O)CC(=O)O)C1=C(C)CC(c2ccc(C(=N)N)cc2)N([C@@H](C)c2ccc(OC)cc2)C1=O` (some centres not stated), the IC50 against Integrin alpha-V/beta-3 and against Integrin alpha-5/beta-1 was over 1000 µM each time.

For the compound `CCCN(C(=O)C(CC(=O)OC)C(=O)O)C1=C(C)CC(c2ccccc2)N(Cc2ccc(N)cc2)C1=O` (configuration not stated), the results for the IC50 on Integrin alpha-V/beta-3 and on Integrin alpha-5/beta-1 were 45 µM and over 1000 µM, respectively.

For the compound `CCCN(C(=O)C(CC(=O)O)C(=O)O)C1=C(C)CC(c2ccccc2)N(Cc2ccc(N)cc2)C1=O` (configuration not stated), the concentration for half-maximal inhibition (IC50) on Integrin alpha-V/beta-3 and against Integrin alpha-5/beta-1 was over 1000 µM each time.

As for `CCCN(C(=O)C(CC(=O)OC)C(=O)O)C1=C(C)CC(c2ccccc2)N(Cc2ccc(C(=N)N)cc2)C1=O` (configuration not stated), the IC50 at Integrin alpha-V/beta-3 and on Integrin alpha-5/beta-1 was over 1000 µM each time.

Consider `CCCN(C(=O)CC(=O)O)C1=C(C)C[C@@H](c2ccccc2)N([C@@H](C)c2ccc(N)cc2)C1=O`, for which the concentration for half-maximal inhibition (IC50) was found to be 0.071 µM against Integrin alpha-V/beta-3 and 0.057 µM on Integrin alpha-5/beta-1.

With `CCCN(C(=O)CCN)C1=C(C)CC(c2ccccc2)N(CCC(=O)O)C1=O` (configuration not stated), the half-maximal inhibitory concentration (IC50) at Integrin alpha-V/beta-3 and at Integrin alpha-5/beta-1 was over 1000 µM throughout.

`CCCN(C(=O)CCC(=O)O)C1=C(C)CC(c2ccccc2)N(Cc2ccc(C(=N)N)cc2)C1=O` (configuration not stated): the IC50 on Integrin alpha-V/beta-3 and against Integrin alpha-5/beta-1 was over 1000 µM in each case.

`CC(=O)N[C@@H](CC(=O)O)C(=O)N[C@@H](CCCNC(=N)N)C(=O)N[C@@H](CC(C)C)C(=O)N[C@@H](CC(=O)O)C(=O)N[C@@H](CO)C(=O)O` (Ac-DRLDS-OH): the figures for the IC50 at Integrin alpha-V/beta-3 and against Integrin alpha-5/beta-1 were 0.025 µM and 259 µM, respectively.

Consider `CCCN(C(=O)CCCCCN)C1=C(C)CC(c2ccccc2)N(CCC(=O)O)C1=O` (configuration not stated), for which the concentration for half-maximal inhibition (IC50) on Integrin alpha-V/beta-3 and at Integrin alpha-5/beta-1 was over 1000 µM throughout.

`CCCN(C(=O)CC(=O)O)C1=C(C)CC(c2ccccc2)N(Cc2ccc(C(=N)N)cc2)C1=O` (configuration not stated): the values for the IC50 against Integrin alpha-V/beta-3 and at Integrin alpha-5/beta-1 were 120 µM and over 1000 µM, respectively.

On to `CCCN(C(=O)CC(=O)O)C1=C(C)C[C@H](c2ccc(N)cc2)N([C@@H](C)c2ccc(OC)cc2)C1=O`, for which the results for the 50% inhibitory concentration (IC50) at Integrin alpha-V/beta-3 and on Integrin alpha-5/beta-1 were 21 µM and 0.018 µM, respectively.

For `CCCN(C(=O)CC(=O)O)C1=C(C)CC(c2ccccc2)N(Cc2ccc(N)cc2)C1=O` (configuration not stated), the IC50 is 0.6 µM against Integrin alpha-V/beta-3 and 0.17 µM at Integrin alpha-5/beta-1.

Regarding `CCCN(C(=O)C(CC(=O)O)C(=O)O)C1=C(C)CC(c2ccccc2)N(Cc2ccc(C(=N)N)cc2)C1=O` (configuration not stated), the half-maximal inhibitory concentration (IC50) against Integrin alpha-V/beta-3 and at Integrin alpha-5/beta-1 was over 1000 µM in each case.

Turning to `CCCN(C(=O)CC(=O)O)C1=C(C)CC(c2ccccc2)N(CCCCN)C1=O` (configuration not stated), the IC50 on Integrin alpha-V/beta-3 stood at 0.038 µM; against Integrin alpha-5/beta-1, 0.043 µM.

In the case of `CCCN(C(=O)CC(=O)O)C1=C(C)C[C@@H](c2ccc(N)cc2)N([C@@H](C)c2ccc(OC)cc2)C1=O`, the IC50 against Integrin alpha-V/beta-3 was 0.24 µM; at Integrin alpha-5/beta-1, over 1000 µM.
